Read-outs that look alike come from different tables or passages of the source.

One data set deals with NF-κB. Description: NF-κB-mediated luciferase reporter gene assay, HEK293 NF-κB/Luc cells, TNF-α stimulation. It is filed as cell-based, human. The note with it: Homo sapiens, HEK293, Table 12; read-out: NF-κB EC50. In a few lines:
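Cells seeded at 1.5×10^4/well in phenol-red free DMEM, pretreated 1 h with 8-point half-log compound dilutions (DMSO stocks), then stimulated with TNF-α (10 μl of 50 ng/ml solution) for 6 h. Luciferase read as RLU after 10 min with Steady Lite reagent at room temperature.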
Background: In a reporter assay the amount or activity of a reporter protein is the signal.

In data set [1] the target is T1, chymotrypsin-like activity of 20S proteasomes in RPMI 8226 cells (Homo sapiens, UniProt P28074).
T1 construct: added to 2.5×10^5/ml RMPI 8226 cells; endogenous in cells; host or cells: RPMI 8226 (ATCC CCL-155)
T1 sequence (P28074 60-263): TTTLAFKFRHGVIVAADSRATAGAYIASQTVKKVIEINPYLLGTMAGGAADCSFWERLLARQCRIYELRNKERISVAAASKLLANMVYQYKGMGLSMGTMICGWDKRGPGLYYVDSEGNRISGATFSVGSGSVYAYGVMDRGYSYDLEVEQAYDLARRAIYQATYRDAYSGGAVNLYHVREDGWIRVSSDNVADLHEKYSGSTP
Description: Chymotrypsin-like activity of 20S proteasomes in lysates of treated RPMI 8226 cells. In kind it is cell-based. The protocol:
RPMI 8226 (ATCC, CCL-155), the human multiple myeloma cell line, was cultured in RPMI 1640 medium supplemented with 2 mM L-glutamine, 100 units/ml penicillin, 100 μg/ml streptomycin, 1 mM sodium pyruvate and 10% heat inactivated fetal bovine serum at 37° C., 5% CO2 and 95% humidified air. […] DMSO was used as the vehicle control at a final concentration of 0.1%. Following 1 hr incubation of RMPI 8226 cells with the compounds, the cells were pelleted by centrifugation at 2,000 rpm for 10 sec at room temperature and washed 3× with ice-cold 1× Dulbecco's Phosphate-Buffered Saline (DPBS, Mediatech, Herndon, Va.). DPBS washed cells were lysed on ice for 15 min in lysis buffer (20 mM HEPES, 0.5 mM EDTA, 0.05% Triton X-100, pH 7.3) supplemented with protease inhibitor cocktail (Roche Diagnostics, Indianapolis, Ind.). Cell debris was pelleted by centrifugation at 14,000 rpm for 10 min, 4° C. and supernatants (=cell lysates) were transferred to a new tube. Protein concentration was determined by the BCA protein assay kit (Pierce Biotechnology, Rockford, Ill.). […] The released coumarin (AMC) was measured fluorometrically by using λex=390 nm and λem=460 nm. The assay was performed in a microtiter plate (Corning 3904) and followed kinetically with measurements every five minutes for 2 hr. The total amount of protein used for each assay was 20 μg. The final concentration of Suc-LLVY-AMC and DMSO was 20 μM and 0.2%, respectively.

For data set [2], the target named is T2, chymotrypsin-like activity of 20S proteasomes in PC-3 cells (Homo sapiens, UniProt P28074).
T2 construct: endogenous in cells; host or cells: PC-3 (ATCC CRL-1435)
Kind of data set: Chymotrypsin-like activity of 20S proteasomes in lysates of treated PC-3 cells. In kind it is cell-based. The note with it: for % inhibition of the chymotrypsin-like activity of 20S proteasomes in PC-3 cell lysates: 1 hr incubation. The protocol: PC-3 (ATCC, CRL-1435), the human prostate cancer cell line, was cultured in F12K medium supplemented with 2 mM L-glutamine, 100 units/ml penicillin, 100 μg/ml streptomycin and 10% heat inactivated fetal bovine serum at 37° C., 5% CO2 and 95% humidified air. […] DMSO was used as the vehicle control at a final concentration of 0.1%. Following 1 hr incubation of PC-3 cells with the compounds, the cells were washed 3× with ice-cold 1× Dulbecco's Phosphate-Buffered Saline (DPBS, Mediatech, Herndon, Va.). […] Cell debris was pelleted by centrifugation at 14,000 rpm for 10 min, 4° C. and supernatants (=cell lysates) were transferred to a new tube. Protein concentration was determined by the BCA protein assay kit (Pierce Biotechnology, Rockford, Ill.). […] The released coumarin (AMC) was measured fluorometrically by using λex=390 nm and λem=460 nm. The assay was performed in a microtiter plate (Corning 3904) and followed kinetically with measurements every five minutes for 2 hr. The total amount of protein used for each assay was 20 μg. The final concentration of Suc-LLVY-AMC and DMSO was 20 μM and 0.2%, respectively. Results are presented as the percent inhibition of the 20S proteasome chymotrypsin-like activity relative to the DMSO control.

Another data set has as its system RPMI 8226. Kind of data set: cells. The note with it: for EC50: Homo sapiens. The protocol:
RPMI 8226 (CCL-155), HT-29 (HTB-38), and B16-F10 (CRL-6475) cells were purchased from ATCC. RPMI 8226 cells were maintained in RPMI 1640 media supplemented with 10% (v/v) FBS, 2 mM L-glutamine, 1 mM sodium pyruvate and Penicillin/Streptomycin at 100 IU/ml and 100 μg/ml, respectively. HT-29 cells were maintained in McCoys 5A supplemented with 10% (v/v) FBS, 2 mM L-glutamine, 1 mM sodium pyruvate, 1% (v/v) non-essential amino acids, 10 mM HEPES and Penicillin/Streptomycin at 100 IU/ml and 100 μg/ml, respectively. B16-F10 cells were maintained in DMEM supplemented with 10% (v/v) FBS, 2 mM L-glutamine, 10 mM HEPES and Penicillin/Streptomycin at 100 IU/ml and 100 μg/ml, respectively.
RPMI 8226 cells were seeded at 2×10^4 cells/well in 90 μl RPMI media containing 10% (v/v) FBS or 1% (v/v) FBS into 96 well black-walled, clear-bottom tissue culture plates. […] Formulae II-16, II-17 and Formula II-18 were serially diluted in media containing 1% or 10% FBS and added in triplicate to the test wells. […] The final concentration of Formula II-18 ranged from 2 μM to 630 pM.

In another data set the test system is HT-29. Description: Growth inhibition of HT-29 in media containing 1% or 10% FBS. In kind it is cell-based, human. The note with it: for EC50: Homo sapiens, HT-29, read-out: HT-29, EC50 (nM) mean ± SD.
Another data set deals with B16-F10. Description: Growth inhibition of B16-F10 in media containing 1% or 10% FBS. It is filed as cell-based, mouse.
Setting [3] is: RPMI-8226, read-out: % inhibition of the chymotrypsin-like activity of 20S proteasomes in RPMI 8226 cell lysates.
The mark [4] stands for this setting: PC-3, read-out: % inhibition of the chymotrypsin-like activity of 20S proteasomes in PC-3 cell lysates.

One may read the EC50 as the concentration that produces a half-maximal response. For orientation: inhibition means how much of the control response was suppressed. On to `C[C@@]12OC(=O)[C@]1([C@@H](O)[C@@H]1C=CCCC1)NC(=O)[C@@H]2CCCl` [Formula II-16], for which the half-maximal effective concentration (EC50) with NF-κB was determined as 11 ± 3 nM; in the data set with RPMI 8226 (RPMI-8226, read-out: 1% FBS, EC50, RPMI 8226, media containing 1% FBS, single experiments) it was 6.2 nM; in the data set with RPMI 8226 (RPMI-8226, read-out: 10% FBS, EC50, RPMI 8226, media containing 10% FBS, single experiments) it was 12 nM; in the data set with RPMI 8226 (RPMI-8226, read-out: Mean 10% FBS, EC50, RPMI 8226, media containing 10% FBS, mean), 11 nM; in the data set on HT-29 (media containing 1% FBS), 16 ± 5 nM; in the data set on HT-29 (media containing 10% FBS), 23 ± 10 nM. Also, the half-maximal effective concentration (EC50) with B16-F10 (Mus musculus, B16-F10, read-out: B16-F10, EC50 (nM) mean ± SD, media containing 1% FBS) was found to be 18 ± 9 nM. For the same compound, the “% inhibition of the chymotrypsin-like activity of 20S proteasomes in RPMI 8226 cell lysates” value in data set [1] (100 nM, 1 hr incubation, mean ± SD, n = 3, 0.1 µM) was “completely inhibit”. Moreover, the inhibition at 0.001 µM in data set [1] (setting [3]) is 30 ± 7%. Further, the results for the inhibition at 0.005 µM in data set [1] (setting [3]) and in data set [2] (setting [4]) were 85 ± 7% and 69%, respectively. The inhibition at 0.01 µM in data set [1] (setting [3]) was 94 ± 3%. Moreover, the inhibition at 0.05 µM in data set [1] (setting [3]) stood at 97%; in data set [2] (setting [4]), 98%. Further, the inhibition at 0.1 µM in data set [1] (setting [3]) came to 98 ± 1%. Also, the “% inhibition of the chymotrypsin-like activity of 20S proteasomes in PC-3 cell lysates” value is recorded as 69% in data set [2] (5 nM) and “completely inhibit” in data set [2] (50 nM, 0.05 µM). Further, the “cytotoxicity against RPMI 8226 in media containing 1% or 10% FBS, in words” value in the data set with RPMI 8226 (1% or 10% FBS) is “cytotoxic”. In the data set with HT-29 (1% or 10% FBS), the “cytotoxicity against HT-29 in media containing 1% or 10% FBS, in words” value was “cytotoxic”. Also, the “cytotoxicity against B16-F10 in media containing 1% or 10% FBS, in words” value in the data set on B16-F10 (1% or 10% FBS) is “cytotoxic”.
